In paper PMC8421423, “Cellular model system to dissect the isoform-selectivity of Akt inhibitors” (Nature Communications, 2021):
Values joined by “and” are separate entries in the source; they are usually repeats but may differ in a detail not shown here. Identical values can stand only once. Like-named read-outs stand apart in the source and are kept apart here.

How the values were obtained:
Akt1 = Akt1 (Homo sapiens, UniProt P31749); assay: STK HTRF KinEASE activity-based assay (IC50); conditions: for Log ratio IC50 [Akt] / IC50 [Akt], Akt1 / Akt2: biochemical activity based assay, log units
Chain of Akt1 (P31749 whole entry): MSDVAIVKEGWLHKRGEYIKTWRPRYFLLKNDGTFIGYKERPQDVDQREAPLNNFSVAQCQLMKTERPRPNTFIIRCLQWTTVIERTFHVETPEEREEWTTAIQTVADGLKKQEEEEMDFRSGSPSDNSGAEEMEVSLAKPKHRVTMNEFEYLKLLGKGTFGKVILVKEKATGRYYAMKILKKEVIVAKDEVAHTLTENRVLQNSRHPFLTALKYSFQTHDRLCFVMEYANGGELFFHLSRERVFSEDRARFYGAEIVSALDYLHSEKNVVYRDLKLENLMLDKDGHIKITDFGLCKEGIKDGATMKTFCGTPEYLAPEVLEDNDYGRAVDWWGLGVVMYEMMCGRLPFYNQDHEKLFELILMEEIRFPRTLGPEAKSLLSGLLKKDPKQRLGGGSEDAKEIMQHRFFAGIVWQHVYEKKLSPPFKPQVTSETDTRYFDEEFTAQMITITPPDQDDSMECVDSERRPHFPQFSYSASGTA

Ba/F3^myr-Akt2 cells = assay: CellTiter-Glo cell viability assay
Ba/F3^myr-Akt1 cells = assay: CellTiter-Glo cell viability assay; conditions: for Log ratio EC50 [Akt] / EC50 [Akt], Akt1 / Akt2: cell viability assay Ba/F3 myr-Akt cells, log units
Ba/F3^myr-Akt3 cells = assay: CellTiter-Glo cell viability assay; conditions: for Log ratio EC50 [Akt] / EC50 [Akt], Akt3 / Akt2: cell viability assay Ba/F3 myr-Akt cells, log units
Akt2 = Akt2 (Homo sapiens, UniProt P31751); assay: STK HTRF KinEASE activity-based assay (IC50)
Chain of Akt2 (P31751 whole entry): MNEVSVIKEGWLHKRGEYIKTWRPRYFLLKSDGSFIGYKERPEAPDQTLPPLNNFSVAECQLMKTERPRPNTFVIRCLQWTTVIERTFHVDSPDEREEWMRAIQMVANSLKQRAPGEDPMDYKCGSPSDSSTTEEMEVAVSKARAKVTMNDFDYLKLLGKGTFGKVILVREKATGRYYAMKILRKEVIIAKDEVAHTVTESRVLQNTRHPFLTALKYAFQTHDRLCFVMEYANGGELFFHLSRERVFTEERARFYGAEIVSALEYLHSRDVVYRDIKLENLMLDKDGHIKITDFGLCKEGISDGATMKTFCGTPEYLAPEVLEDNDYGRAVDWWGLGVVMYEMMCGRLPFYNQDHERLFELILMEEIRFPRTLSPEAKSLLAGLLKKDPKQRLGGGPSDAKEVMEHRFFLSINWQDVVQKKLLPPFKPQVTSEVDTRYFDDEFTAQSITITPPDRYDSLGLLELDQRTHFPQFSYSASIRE
Method: The biochemical half maximal inhibitory concentrations (IC50) were determined with the STK HTRF KinEASE assay (Cisbio) according to the manufactor’s instructions. Briefly: 5 µL Kinase solution and 2.5 µL inhibitor solution (8% DMSO in HTRF buffer) were incubated for 1 h before the reaction was started by addition of 2.5 µL starting solution containing ATP and substrate peptide. […] After reaction completion (Akt1: 60 min, Akt2: 20 min, Akt3: 15 min), 10 µL of stop solution were added. […] The quotient of both intensities were recorded at eight different inhibitor concentrations and data fit to a Hill 4-parameter equation with Quattro software suite (Quattro Research GmbH, Martinsried, Germany). Each reaction was performed in duplicates and at least three independent determinations of each IC50 were made.

parental Ba/F3 cells = assay: CellTiter-Glo cell viability assay; format: cell-based, murine
Akt3 = Akt3 (Homo sapiens, UniProt Q9Y243); assay: STK HTRF KinEASE activity-based assay (IC50)
Chain of Akt3 (Q9Y243 whole entry): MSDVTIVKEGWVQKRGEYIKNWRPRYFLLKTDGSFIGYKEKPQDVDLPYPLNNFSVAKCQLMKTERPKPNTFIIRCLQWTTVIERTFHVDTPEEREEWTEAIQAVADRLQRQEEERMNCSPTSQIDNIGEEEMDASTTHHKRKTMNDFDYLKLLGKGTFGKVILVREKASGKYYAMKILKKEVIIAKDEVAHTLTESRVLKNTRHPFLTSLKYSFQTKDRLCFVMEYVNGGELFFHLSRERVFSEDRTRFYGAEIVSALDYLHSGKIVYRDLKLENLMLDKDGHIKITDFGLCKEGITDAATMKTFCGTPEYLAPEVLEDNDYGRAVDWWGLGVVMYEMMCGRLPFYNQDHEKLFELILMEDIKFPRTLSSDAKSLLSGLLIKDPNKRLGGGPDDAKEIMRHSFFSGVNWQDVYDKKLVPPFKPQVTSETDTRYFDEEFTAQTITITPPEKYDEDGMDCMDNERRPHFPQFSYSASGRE

[1] = HTRF IC50 Akt1, Mean, mean of replicates
[2] = HTRF IC50 Akt1, individual determinations, single replicates
[3] = IC50 Akt1, HTRF, ATP at KM, 1 h preincubation
[4] = Mus musculus, read-out: CTG BaF3myr-Akt2, individual determinations, single replicates
[5] = read-out: CTG BaF3myr-Akt2, individual determinations, single replicates
[6] = Mus musculus, read-out: CTG BaF3myr-Akt1, Mean, mean of replicates
[7] = Mus musculus, read-out: CTG BaF3myr-Akt1, individual determinations, single replicates
[8] = Mus musculus, read-out: EC50 BaF3myr-Akt1, CTG
[9] = read-out: CTG BaF3myr-Akt1, individual determinations, single replicates
[10] = Mus musculus, read-out: CTG BaF3myr-Akt3, Mean, mean of replicates
[11] = Mus musculus, read-out: CTG BaF3myr-Akt3, individual determinations, single replicates
[12] = read-out: CTG BaF3myr-Akt3, individual determinations, single replicates
[13] = HTRF IC50 Akt2, Mean, mean of replicates
[14] = HTRF IC50 Akt2, individual determinations, single replicates
[15] = IC50 Akt2, HTRF, ATP at KM, 1 h preincubation
[16] = Mus musculus, BaF3, CTG, parental BaF3 cell line, read-out: EC50 BaF3
[17] = Mus musculus, BaF3, parental cells, mean of replicates, read-out: CTG BaF3, Mean
[18] = Mus musculus, BaF3, parental cells, single replicates, read-out: CTG BaF3, individual determinations
[19] = parental cells, single replicates, read-out: CTG BaF3, individual determinations
[20] = HTRF IC50 Akt3, Mean, mean of replicates
[21] = HTRF IC50 Akt3, individual determinations, single replicates
[22] = IC50 Akt3, HTRF, ATP at KM, 1 h preincubation
[23] = Mus musculus, read-out: CTG BaF3myr-Akt2, Mean, mean of replicates

| SMILES | IC50 (Akt1; [1]) [µM] | IC50 (Akt1; [2]) | IC50 (Akt1; [3]) [µM] | Log ratio IC50 [Akt] / IC50 [Akt], Akt1 / Akt2 (Akt1) | EC50 (Ba/F3^myr-Akt2 cells; [4]) [µM] | EC50 (Ba/F3^myr-Akt2 cells; [5]) | EC50 (Ba/F3^myr-Akt1 cells; [6]) [µM] | Log ratio EC50 [Akt] / EC50 [Akt], Akt1 / Akt2 (Ba/F3^myr-Akt1 cells) | EC50 (Ba/F3^myr-Akt1 cells; [9]) | EC50 (Ba/F3^myr-Akt3 cells; [10]) [µM] | Log ratio EC50 [Akt] / EC50 [Akt], Akt3 / Akt2 (Ba/F3^myr-Akt3 cells) | EC50 (Ba/F3^myr-Akt3 cells; [12]) | IC50 (Akt2; [13]) [µM] | IC50 (Akt2; [14]) | IC50 (Akt2; [15]) [µM] | EC50 (parental Ba/F3 cells; [17]) [µM] | EC50 (parental Ba/F3 cells; [19]) | IC50 (Akt3; [20]) [µM] | IC50 (Akt3; [21]) | IC50 (Akt3; [22]) [µM] | also measured |
| --- | --- | --- | --- | --- | --- | --- | --- | --- | --- | --- | --- | --- | --- | --- | --- | --- | --- | --- | --- | --- | --- |
| C=CC(=O)Nc1ccc2[nH]c(=O)n(C3CCN(Cc4ccc(-c5ncc(Cc6cccc(O)c6)cc5-c5ccccc5)cc4)CC3)c2c1 [compound 16] | 9.48 | 10.2 µM and 9 µM and 9.2 µM | 9.48 ± 0.665 | 1.14 | > 30 | 16.5 µM and > 30 µM | > 30 | 0.07 | > 30 µM | > 30 | -0.07 | > 30 µM | 0.682 | 0.766 µM and 1.08 µM and 0.599 µM | 0.682 ± 0.083 | > 30 | > 30 µM | 5.34 | 4.32 µM and 3.56 µM and 8.14 µM | 5.34 ± 2.01 | EC50 BaF3myr-Akt1 (Ba/F3^myr-Akt1 cells; CTG): generally inactive; EC50 (Ba/F3^myr-Akt1 cells; [7]): > 30 µM; EC50 (Ba/F3^myr-Akt1 cells; [8]): > 30 µM; EC50 BaF3myr-Akt3 (Ba/F3^myr-Akt3 cells; CTG): generally inactive; EC50 (Ba/F3^myr-Akt3 cells; [11]): > 30 µM; EC50 (Ba/F3^myr-Akt3 cells; Mus musculus, read-out: EC50 BaF3myr-Akt3, CTG): > 30 µM; EC50 (parental Ba/F3 cells; [16]): > 30 µM; EC50 (parental Ba/F3 cells; [18]): > 30 µM |
| C=CC(=O)Nc1ccc2[nH]c(=O)n(C3CCN(Cc4ccc(-c5ncc(Cc6cccc(N)c6)cc5-c5ccccc5)cc4)CC3)c2c1 [compound 17] | 2.85 | 2.55 µM and 3.9 µM and 2.12 µM | 2.85 ± 0.758 | 1.33 | 3.2 | 4.24 µM and 2.81 µM | > 30 | 0.90 | > 30 µM | 22 | -0.77 | 17.8 µM and 24.3 µM | 0.133 | 0.136 µM and 0.142 µM and 0.121 µM | 0.133 ± 0.009 | > 30 | > 30 µM | 2.11 | 1.48 µM and 2.41 µM and 2.43 µM | 2.11 ± 0.441 | EC50 (Ba/F3^myr-Akt2 cells; [23]): 3.75 µM; EC50 (Ba/F3^myr-Akt1 cells; [7]): > 30 µM; EC50 (Ba/F3^myr-Akt1 cells; [8]): > 30 µM; EC50 (Ba/F3^myr-Akt3 cells; [11]): 21.7 µM; EC50 (parental Ba/F3 cells; [16]): > 30 µM; EC50 (parental Ba/F3 cells; [18]): > 30 µM |
| C=CC(=O)Nc1ccc2[nH]c(=O)n(C3CCN(Cc4ccc(-c5ncc(Cc6ccc(N)cc6)cc5-c5ccccc5)cc4)CC3)c2c1 [compound 19] | 1.8 | 1.9 µM and 1.84 µM and 1.65 µM | 1.8 ± 0.105 | 0.55 | 2.19 | 3.83 µM and 2.66 µM | 12.7 | 0.64 | 19.7 µM and 8.66 µM and 9.89 µM | 7.44 | -0.41 | 7.03 µM and 8.07 µM | 0.511 | 0.523 µM and 0.43 µM and 0.581 µM | 0.511 ± 0.062 | 12.5 | 6.98 µM and 7.49 µM and 18.8 µM | 1.51 | 2.03 µM and 1.41 µM and 1.09 µM | 1.51 ± 0.389 | EC50 (Ba/F3^myr-Akt2 cells; [23]): 2.89 µM; EC50 (Ba/F3^myr-Akt3 cells; [11]): 6.61 µM; loss of potency of the anilinic CAAI (Akt3; Akt3, biochemical IC50): 10 fold |
| C=CC(=O)Nc1ccc2[nH]c(=O)n(C3CCN(Cc4ccc(-c5ncc(C(=O)Nc6ccccn6)cc5-c5ccccc5)cc4)CC3)c2c1 [compound 23] | 0.13 | 0.128 µM and 0.117 µM and 0.144 µM | 0.13 ± 0.011 | -0.07 |  | 4.03 µM and 2.63 µM and 1.62 µM | 14.6 | 0.72 | 8.09 µM and 10.5 µM and 25.3 µM | 17.1 | -0.79 | 9.71 µM and 24.4 µM and 23.9 µM | 0.152 | 0.117 µM and 0.167 µM and 0.17 µM | 0.151 ± 0.025 | > 30 | > 30 µM | 6.3 | 3.66 µM and 8.18 µM and 7.06 µM | 6.3 ± 1.92 | EC50 (Ba/F3^myr-Akt2 cells; [23]): 2.76 µM; EC50 (parental Ba/F3 cells; [16]): > 30 µM; EC50 (parental Ba/F3 cells; [18]): > 30 µM |
